Test results published in the supplement of paper PMC11061612.

How the values were obtained:
[1] = tested on: COLO-668 (Small Cell Lung Carcinoma); test: Bliss excess, mean over the matrix (fraction); higher = more synergy
In short: (§1)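 After 24 hours at 37°C and 5% CO2 in 1536-well plates, cells in DMEM/F12 or RPMI plus 10% FBS received two-drug dose matrices for 72 hours. Viability came from CellTiter-Glo 2.0 luminescence and was scaled as inhibition, anchored at 0 by vehicle wells and at 1 by blank wells. Combination Emax is taken as the second-highest inhibition in the matrix, and Bliss excess as the observed combination effect less EA + EB − EA·EB, with EA and EB the single-agent effects.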

[2] = tested on: SW872 (Other Solid Carcinomas); test: as above
In short: as §1

[3] = tested on: COLO-668 (Small Cell Lung Carcinoma); test: combination Emax (second highest fraction inhibited in the dose matrix, 72 h); higher = more inhibition; extreme values may be limits of the assay
In short: as §1

[4] = tested on: Ca-Ski (Cervical Carcinoma); test: as above
In short: as §1

[5] = tested on: DU-145 (Prostate Carcinoma); test: as above
In short: as §1

[6] = tested on: EFO-21 (Ovarian Carcinoma); test: as above
In short: as §1

[7] = tested on: NCI-H1355 (Lung Adenocarcinoma); test: as above
In short: as §1

[8] = tested on: NCI-H522 (Lung Adenocarcinoma); test: as above
In short: as §1

[9] = tested on: OE33 (Esophageal Adenocarcinoma); test: as above
In short: as §1

[10] = tested on: SK-LU-1 (Lung Adenocarcinoma); test: as above
In short: as §1

SK-N-AS (Neuroblastoma) = test: as above
In short: as §1

[11] = tested on: SNU-387 (Hepatocellular Carcinoma); test: as above
In short: as §1

[12] = tested on: SW982 (Other Solid Carcinomas); test: as above
In short: as §1
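For Bliss excess, mean over the matrix in this document: after 72 h of two-drug dosing.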

Structure (SMILES)	Bliss excess [1]	Bliss excess [2]	combination Emax [3]	combination Emax [4]	combination Emax [5]	combination Emax [6]	combination Emax [7]	combination Emax [8]	combination Emax [9]	combination Emax [10]	combination Emax (SK-N-AS (Neuroblastoma))	combination Emax [11]	combination Emax [12]
CS(=O)(=O)CCNCc1ccc(-c2ccc3ncnc(Nc4ccc(OCc5cccc(F)c5)c(Cl)c4)c3c2)o1 [Lapatinib] + Cn1cnc2c(F)c(Nc3ccc(Br)cc3Cl)c(C(=O)NOCCO)cc21 [Selumetinib] (first compound max 10 µM, 7x7, partner max 10 µM)	-0.0388	0.0006	0.493	0.671	0.171	0.331	0.472	0.257	0.743	0.377	0.441	0.62	0.66
C=CCn1c(=O)c2cnc(Nc3ccc(N4CCN(C)CC4)cc3)nc2n1-c1cccc(C(C)(C)O)n1 [AZD1775] + Nc1ccn([C@@H]2O[C@H](CO)[C@@H](O)C2(F)F)c(=O)n1 [Gemcitabine] (first compound max 1 µM, partner max 0.3 µM)	-0.0734	0.0462	0.738	0.828	0.542	0.482	0.614	0.608	0.616	0.457	0.704	0.552	0.888
C[C@@H]1COCCN1c1cc(C2([S@](C)(=N)=O)CC2)nc(-c2ccnc3[nH]ccc23)n1 [AZD6738] + C1CC(C1)(C(=O)[O-])C(=O)[O-].N.N.[Pt+2] [Carboplatin] (first compound max 10 µM, 7x7, partner max 10 µM)	0.025	0.0087	0.567	0.649	0.351	0.263	0.581	0.194	0.771	0.497	0.69	0.289	0.665
C[C@@H](Nc1cc(F)cc(F)c1)c1cc(C(=O)N(C)C)cc2c(=O)cc(N3CCOCC3)oc12 [AZD8186] + CC(=O)c1c(C)c2cnc(Nc3ccc(N4CCNCC4)cn3)nc2n(C2CCCC2)c1=O [Palbociclib] (first compound max 10 µM, 7x7, partner max 10 µM)	0.0261	0.0874	0.378	0.484	0.417	0.325	0.425	0.147	0.477	0.434	0.281	0.614	0.639
C[C@@H](Oc1cc(-c2cnn(C3CCNCC3)c2)cnc1N)c1c(Cl)ccc(F)c1Cl [Crizotinib] + CC1=C(C(=CC=C1)Cl)NC(=O)C2=CN=C(S2)NC3=CC(=NC(=N3)C)N4CCN(CC4)CCO [Dasatinib] (first compound max 10 µM, 7x7, partner max 2 µM)	-0.0289	0.041	0.415	0.942	0.462	0.701	0.289	0.339	0.853	0.479	0.491	0.743	1
CC1(C)CCC(CN2CCN(c3ccc(C(=O)NS(=O)(=O)c4ccc(NCC5CCOCC5)c([N+](=O)[O-])c4)c(Oc4cnc5[nH]ccc5c4)c3)CC2)=C(c2ccc(Cl)cc2)C1 [Venetoclax] + CS(=O)(=O)CCNCc1ccc(-c2ccc3ncnc(Nc4ccc(OCc5cccc(F)c5)c(Cl)c4)c3c2)o1 [Lapatinib] (first compound max 1 µM, 7x7, partner max 10 µM)	0.0091	-0.0313	0.282	0.503	0.127	0.153	0.16	0.153	0.485	0.183	0.118	0.078	0.437
CN(CCO)CC[C@H](CSc1ccccc1)Nc1ccc(S(=O)(=O)NC(=O)c2ccc(N3CCC([C@@H](O)c4ccccc4-c4ccc(Cl)cc4)CC3)cc2)cc1S(=O)(=O)C(F)(F)F [AZD4320] + CS(=O)(=O)CCNCc1ccc(-c2ccc3ncnc(Nc4ccc(OCc5cccc(F)c5)c(Cl)c4)c3c2)o1 [Lapatinib] (first compound max 1 µM, 7x7, partner max 10 µM)	0.0881	0.0097	0.975	1	0.174	0.491	0.264	0.237	0.806	0.47	0.197	0.939	0.968
